# Experiment: GSNO decomposition at different pH values, monitored spectrophotometrically at 540 nm (FIG. 3)
# Assay type: physicochemical
# Text: The GSNO is a brown colored compound having a characteristic absorption spectrum. One of its two characteristic peaks is in the UV range, while the maximum of the other is around 540 nm. During decomposition the absorption spectrum of GSNO goes through a change. The change in the height of the peak at 540 nm is linearly proportional with the concentration of GSNO. Wavelengths at far IR range can be used as background absorption, since no change occurs in them during the decomposition process of GSNO. These features allow monitoring the concentration of GSNO spectrophotometrically. […] On the X-axis the time (given in days) and on the Y-axis absorbency values are given. Symbols Indicate the Following pH Values: • *: pH=0.3; • ♦: pH=4.26; • □: pH=7.4; • ▪: pH=8.6; • ◯: pH=12.6. The decomposition of GSNO was monitored spectrophotometrically, since the absorption spectrum of GSNO undergoes changes and the size change of the peak at 540 nm is linearly proportional with the concentration of GSNO. Wavelengths at far IR range were used as background absorption, since no change occurs in them during the decomposition of GSNO.
smiles,measurement,setting,value
"N[C@@H](CCC(=O)N[C@@H](CSN=O)C(=O)NCC(=O)O)C(=O)O [GSNO, S-nitrosoglutathione]",GSNO metabolism (decomposition),"more alkaline conditions, curve of pH 12",gets accelerated
same,stability,"pH about 8.6, compared with conventionally applied pH 4.26",very good stability
same,pH range of plateau-like maximum of stability,pH range,7.5 to 10
same,metabolic rate of GSNO,under alkaline conditions,significantly be decreased

# Reference: patent publication US8404266B2, “Method for stabilization of S-nitrosoglutathione and composition prepared by the same” (Pharmagenix AG, priority 2008, dated 2013)
